Assay results taken from patent publication EP0359529B1, “Method for the control of pneumocystis carinii” (Merck & Co., Inc., priority 1988, dated 1990).
Numbered stars: 1 amine (or outer) side, 2 acyl side, 3 side chain; on linkers, the order of the positions; unused ones are H or OH. Bridge positions count the residues as written; N and C are the ends. Square brackets hold non-standard residues; d marks the D form. Peptide text beside a SMILES is read from it. * marks the point of attachment. ξ: configuration not given here. ξOrn(4R-OH,5R-OH) = O=C(C(C[C@@H](O)[C@@H](O)N[*:3])N[*:1])[*:2]; ξhTyr(3S-OH,4S-OH) = NC(C(=O)O)[C@H](O)[C@@H](O)c1ccc(O)cc1; ξOrn(4,5-diOH) = O=C(C(CC(O)C(O)N[*:3])N[*:1])[*:2]; ξhTyr(βξ-OH,γξ-OH) = NC(C(=O)O)C(O)C(O)c1ccc(O)cc1; Benzoyl(4-octyloxy) = CCCCCCCCOc1ccc(C(=O)*)cc1; X3 = C[C@H]1CN([*:1])C(C(=O)[*:2])[C@H]1O; ξPro(3ξ-OH,4ξ-Me) = CC1CNC(C(=O)O)C1O; X2 = NC(=O)CC(O)C(N[*:1])C(=O)[*:2]; ξPro(4R-OH) = O=C(O)C1C[C@@H](O)CN1; X1 = CCC(C)CC(C)CCCCCCCCC(=O)*; Hyp = O=C(O)[CH]1C[CH](O)CN1; ξT = CC(O)C(N)C(=O)O

Legend:
P. carinii [1] = experiment: Similar immunosuppressed rat study, 7 day treatment, cysts per lung counted; format: in vivo; conditions: immunosuppressed rats; 2 mg/kg injected twice daily for 7 days; vehicle 10% DMSO
Description: A similar rat study was conducted to determine the antipneumocystis activity of 1-[(4R,5R)-4,5-dihydroxy-N²-[4-(octyloxy)benzoyl]-L-ii ornithine]echinocandin B (Compound IBii). After 6 weeks of immunosuppression the rats were injected twice daily for 7 days with vehicle alone. Compound IBii (2 mg/kg) or Compound IA (2 mg/kg) during which time immunosuppression was continued. At the end of the treatment period the animals were sacrificed and the number of cysts per lung determined. Compound IA reduced the number of cysts by >99% while Compound IBii reduced the cyst counts by approximately 84% (compared to the vehicle control, 10% DMSO).

P. carinii [2] = experiment: Immunosuppressed rat study of P. carinii infection, two week treatment, lung cysts and parasite nuclei counted; format: in vivo, Sprague-Dawley rats; conditions: dexamethasone-immunosuppressed rats; two weeks treatment; Compound IA 2 mg i.p. twice daily; TMP-SMZ in drinking water (208 mg TMP and 1.040 g SMZ/liter); controls 3.2 x 10⁸ - 1.5 x 10⁹
Description: In a representative study employing Compound IA in rats, nine male Sprague-Dawley rats weighing approximately 200 grams each, were immunosupressed by the addition of dexamethasone to the drinking water (2.0 mg/liter) for six weeks to induce the development of P. carinii infections. To enhance the infection the rats were also maintained on a low protein diet. At the beginning of the seventh week the rats were divided into three groups of three rats each. All three groups continued to receive dexamethasone in the drinking water and low protein diet throughout the remainder of the study. The rats in Group I were kept as untreated infected controls, those in Group II were injected intraperitoneally twice daily for two weeks with 0.5 ml of sterile dH₂O containing 2 mg of Compound IA, and those in Group III were treated with trimethoprim-sulfamethoxazole (TMP-SMZ) in the drinking water (208 mg TMP and 1.040 g of SMZ/liter) for two weeks, a known treatment for P. carinii infections. Two rats died early in the experiment. One was from group II (rat 72A) and the other from group III (rat 75A). It was not determined whether they died from Pneumocystis pneumonia. At the end of the two week treatment period (a total of eight weeks of immonosuppression) the animals were sacrificed and the lung tissue removed. […]

Row | SMILES | reduction of the number of cysts per lung compared to the vehicle control (P. carinii [1]) | number of cysts in the lungs (P. carinii [2])
1 | CCCCCCCCOc1ccc(C(=O)NC2C[C@@H](O)[C@@H](O)NC(=O)C3[C@@H](O)[C@@H](C)CN3C(=O)C(C(C)O)NC(=O)C([C@H](O)[C@@H](O)c3ccc(O)cc3)NC(=O)C3C[C@@H](O)CN3C(=O)C(C(C)O)NC2=O)cc1 (stereo partly drawn) [Compound IBii, 1-[(4R,5R)-4,5-dihydroxy-N²-[4-(octyloxy)benzoyl]-L-ornithine]echinocandin B] ({Benzoyl(4-octyloxy)}-[ξOrn(4R-OH,5R-OH)][ξT][ξPro(4R-OH)][ξhTyr(3S-OH,4S-OH)][ξT][X3]; lactam 1-C) | approximately 84% | 
2 | CCC(C)CC(C)CCCCCCCCC(=O)NC1CC(O)C(O)NC(=O)C2C(O)C(C)CN2C(=O)C(C(O)CC(N)=O)NC(=O)C(C(O)C(O)c2ccc(O)cc2)NC(=O)C2CC(O)CN2C(=O)C(C(C)O)NC1=O (stereo not drawn) [Compound IA] (X1-[ξOrn(4,5-diOH)]T[Hyp][ξhTyr(βξ-OH,γξ-OH)][X2][ξPro(3ξ-OH,4ξ-Me)]; lactam 1-C; configuration not given here) | > 99% | No cysts could be found
